In PubChem BioAssay AID256 (DTP/NCI, 2004):
Several values for one entry are separate records, joined by “and”; a condition that tells them apart may be missing. Equal entries are not always repeated. Inconclusive results and toxic doses are left out.

Tested on: CD2F1 mice, L1210 leukemia ip, survival T/C
Assay: NCI In Vivo Anticancer Drug Screen. Data for tumor model L1210 Leukemia (intraperitoneal) in CD2F1 (CDF1) mice
Conditions: higher = longer survival
Outline: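 Antitumor effect is scored in animals hosting a serially transplanted tumor. Values compare compound-dosed animals against vehicle-only controls as a simple quotient.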

O=NN(CCCl)C(=O)NCCCl
T/C (endpoint: mean survival time, dose: 2.0 mg/kg/injection, schedule: Q01DX009 (ip), vehicle: other): 177 % of control and 293 % of control | T/C (endpoint: mean survival time, dose: 3.75 mg/kg/injection, schedule: Q01DX001 (ip), vehicle: distilled water + alcohol): 115 % of control | T/C (endpoint: mean survival time, dose: 3.75 mg/kg/injection, schedule: Q01DX001 (ip), vehicle: saline + alcohol): 114 % of control | T/C (endpoint: mean survival time, dose: 3.8 mg/kg/injection, schedule: Q01DX001 (ip), vehicle: Klucel (hydroxypropylcellulose) (HPC)): 150 % of control | T/C (endpoint: mean survival time, dose: 4.0 mg/kg/injection, schedule: Q01DX001 (ip), vehicle: saline + alcohol): 113 % of control and 115 % of control | T/C (endpoint: mean survival time, dose: 4.0 mg/kg/injection, schedule: Q01DX009 (ip), vehicle: other): 201 % of control and 255 % of control | T/C (endpoint: mean survival time, dose: 4.0 mg/kg/injection, schedule: Q04DX003 (ip), vehicle: saline + alcohol): 189 % of control | T/C (endpoint: mean survival time, dose: 5.0 mg/kg/injection, schedule: Q01DX001 (ip), vehicle: saline): 113 % of control | T/C (endpoint: mean survival time, dose: 6.25 mg/kg/injection, schedule: Q01DX001 (ip), vehicle: saline + alcohol): 119 % of control and 120 % of control | T/C (endpoint: mean survival time, dose: 7.5 mg/kg/injection, schedule: Q01DX001 (ip), vehicle: Klucel (hydroxypropylcellulose) (HPC)): 164 % of control | T/C (endpoint: mean survival time, dose: 7.5 mg/kg/injection, schedule: Q01DX001 (ip), vehicle: distilled water + alcohol): 123 % of control | T/C (endpoint: mean survival time, dose: 8.0 mg/kg/injection, schedule: Q01DX009 (ip), vehicle: other): 183 % of control | T/C (endpoint: mean survival time, dose: 8.0 mg/kg/injection, schedule: Q04DX003 (ip), vehicle: saline + alcohol): 230 % of control | T/C (endpoint: mean survival time, dose: 9.4 mg/kg/injection, schedule: Q01DX001 (ip), vehicle: saline + alcohol): 156 % of control and 197 % of control | T/C (endpoint: mean survival time, dose: 10.0 mg/kg/injection, schedule: Q01DX001 (ip), vehicle: DMSO): 158 % of control | T/C (endpoint: mean survival time, dose: 12.5 mg/kg/injection, schedule: Q01DX001 (ip), vehicle: saline + alcohol): 152 % of control and 188 % of control and 212 % of control | T/C (endpoint: mean survival time, dose: 14.0 mg/kg/injection, schedule: Q01DX001 (ip), vehicle: saline): 171 % of control | T/C (endpoint: mean survival time, dose: 14.0 mg/kg/injection, schedule: Q07DX003 (ip), vehicle: saline + alcohol): 330 % of control | T/C (endpoint: mean survival time, dose: 14.0 mg/kg/injection, schedule: Q11HX001 (ip), vehicle: saline): 171 % of control | T/C (endpoint: mean survival time, dose: 14.22 mg/kg/injection, schedule: Q01DX001 (ip), vehicle: saline + alcohol): 172 % of control | T/C (endpoint: mean survival time, dose: 15.0 mg/kg/injection, schedule: Q01DX001 (ip), vehicle: Klucel (hydroxypropylcellulose) (HPC)): 332 % of control | T/C (endpoint: mean survival time, dose: 15.0 mg/kg/injection, schedule: Q01DX001 (ip), vehicle: saline): 172 % of control and 248 % of control | T/C (endpoint: mean survival time, dose: 16.0 mg/kg/injection, schedule: Q01DX001 (ip), vehicle: other): 150 % of control | T/C (endpoint: mean survival time, dose: 16.0 mg/kg/injection, schedule: Q04DX003 (ip), vehicle: saline + alcohol): 273 % of control | T/C (endpoint: mean survival time, dose: 18.8 mg/kg/injection, schedule: Q01DX001 (ip), vehicle: saline + alcohol): 319 % of control | T/C (endpoint: mean survival time, dose: 20.0 mg/kg/injection, schedule: Q01DX001 (ip), vehicle: DMSO): 270 % of control | T/C (endpoint: mean survival time, dose: 20.0 mg/kg/injection, schedule: Q01DX001 (ip), vehicle: Klucel (hydroxypropylcellulose) (HPC)): 300 % of control | T/C (endpoint: mean survival time, dose: 20.0 mg/kg/injection, schedule: Q01DX001 (ip), vehicle: other): 169 % of control | T/C (endpoint: mean survival time, dose: 20.0 mg/kg/injection, schedule: Q11HX001 (ip), vehicle: saline): 198 % of control | T/C (endpoint: mean survival time, dose: 21.3 mg/kg/injection, schedule: Q01DX001 (ip), vehicle: saline + alcohol): 248 % of control | T/C (endpoint: mean survival time, dose: 25.0 mg/kg/injection, schedule: Q01DX001 (ip), vehicle: saline + alcohol): 335 % of control | T/C (endpoint: mean survival time, dose: 30.0 mg/kg/injection, schedule: Q01DX001 (ip), vehicle: distilled water + alcohol): 196 % of control | T/C (endpoint: mean survival time, dose: 30.0 mg/kg/injection, schedule: Q01DX001 (ip), vehicle: saline): 232 % of control | T/C (endpoint: mean survival time, dose: 30.0 mg/kg/injection, schedule: Q11HX001 (ip), vehicle: saline): 232 % of control | T/C (endpoint: mean survival time, dose: 32.0 mg/kg/injection, schedule: Q01DX001 (ip), vehicle: other): 246 % of control | T/C (endpoint: mean survival time, dose: 32.0 mg/kg/injection, schedule: Q01DX001 (ip), vehicle: saline): 287 % of control | T/C (endpoint: mean survival time, dose: 33.0 mg/kg/injection, schedule: Q07DX003 (ip), vehicle: saline + alcohol): 323 % of control | T/C (endpoint: mean survival time, dose: 40.0 mg/kg/injection, schedule: Q01DX001 (ip), vehicle: Klucel (hydroxypropylcellulose) (HPC)): 311 % of control | T/C (endpoint: mean survival time, dose: 40.0 mg/kg/injection, schedule: Q01DX001 (ip), vehicle: other): 311 % of control | T/C (endpoint: mean survival time, dose: 45.0 mg/kg/injection, schedule: Q01DX001 (ip), vehicle: saline): 179 % of control | T/C (endpoint: mean survival time, dose: 45.0 mg/kg/injection, schedule: Q11HX001 (ip), vehicle: saline): 180 % of control | T/C (endpoint: mean survival time, dose: 50.0 mg/kg/injection, schedule: Q01DX001 (ip), vehicle: saline + alcohol): 291 % of control | T/C (endpoint: mean survival time, dose: 56.25 mg/kg/injection, schedule: Q01DX001 (ip), vehicle: saline + alcohol): 252 % of control | T/C (endpoint: mean survival time, dose: 60.0 mg/kg/injection, schedule: Q01DX001 (ip), vehicle: distilled water + alcohol): 222 % of control | T/C (endpoint: mean survival time, dose: 80.0 mg/kg/injection, schedule: Q01DX001 (ip), vehicle: saline + alcohol): 168 % of control | T/C (endpoint: median survival time, dose: 0.9 mg/kg/injection, schedule: Q01DX009 (ip), vehicle: saline + alcohol): 116 % of control and 122 % of control | T/C (endpoint: median survival time, dose: 1.75 mg/kg/injection, schedule: Q01DX009 (ip), vehicle: saline + alcohol): 156 % of control | T/C (endpoint: median survival time, dose: 1.8 mg/kg/injection, schedule: Q01DX009 (ip), vehicle: saline + alcohol): 169 % of control | T/C (endpoint: median survival time, dose: 3.0 mg/kg/injection, schedule: Q01DX009 (ip), vehicle: saline + alcohol): 172 % of control | T/C (endpoint: median survival time, dose: 3.5 mg/kg/injection, schedule: Q01DX009 (ip), vehicle: saline + alcohol): 182 % of control and 241 % of control and 246 % of control | T/C (endpoint: median survival time, dose: 5.0 mg/kg/injection, schedule: Q04DX003 (ip), vehicle: saline + alcohol): 152 % of control | T/C (endpoint: median survival time, dose: 6.0 mg/kg/injection, schedule: Q01DX009 (ip), vehicle: saline + alcohol): 256 % of control | T/C (endpoint: median survival time, dose: 7.0 mg/kg/injection, schedule: Q01DX009 (ip), vehicle: saline + alcohol): 218 % of control and 259 % of control | T/C (endpoint: median survival time, dose: 8.0 mg/kg/injection, schedule: Q01DX001 (ip), vehicle: saline + alcohol): 153 % of control | T/C (endpoint: median survival time, dose: 10.0 mg/kg/injection, schedule: Q01DX001 (ip), vehicle: Klucel (hydroxypropylcellulose) (HPC)): 171 % of control and 197 % of control | T/C (endpoint: median survival time, dose: 10.0 mg/kg/injection, schedule: Q01DX001 (ip), vehicle: saline + alcohol): 156 % of control and 178 % of control | T/C (endpoint: median survival time, dose: 10.0 mg/kg/injection, schedule: Q01DX009 (ip), vehicle: saline): 176 % of control | T/C (endpoint: median survival time, dose: 10.0 mg/kg/injection, schedule: Q03DX003 (ip), vehicle: DMSO): 294 % of control | T/C (endpoint: median survival time, dose: 10.0 mg/kg/injection, schedule: Q04DX003 (ip), vehicle: saline + alcohol): 188 % of control | T/C (endpoint: median survival time, dose: 11.5 mg/kg/injection, schedule: Q01DX001 (ip), vehicle: saline + alcohol): 165 % of control | T/C (endpoint: median survival time, dose: 12.0 mg/kg/injection, schedule: Q01DX009 (ip), vehicle: saline + alcohol): 168 % of control | T/C (endpoint: median survival time, dose: 14.0 mg/kg/injection, schedule: Q01DX009 (ip), vehicle: saline + alcohol): 158 % of control and 162 % of control and 185 % of control | T/C (endpoint: median survival time, dose: 14.0 mg/kg/injection, schedule: Q07DX003 (ip), vehicle: saline + alcohol): 273 % of control | T/C (endpoint: median survival time, dose: 14.4 mg/kg/injection, schedule: Q01DX001 (ip), vehicle: saline + alcohol): 152 % of control and 157 % of control | T/C (endpoint: median survival time, dose: 15.0 mg/kg/injection, schedule: Q01DX009 (ip), vehicle: saline): 164 % of control | T/C (endpoint: median survival time, dose: 16.0 mg/kg/injection, schedule: Q01DX001 (ip), vehicle: saline + alcohol): 255 % of control | T/C (endpoint: median survival time, dose: 19.2 mg/kg/injection, schedule: Q01DX001 (ip), vehicle: saline + alcohol): 192 % of control | T/C (endpoint: median survival time, dose: 20.0 mg/kg/injection, schedule: Q01DX001 (ip), vehicle: Klucel (hydroxypropylcellulose) (HPC)): 226 % of control and 234 % of control | T/C (endpoint: median survival time, dose: 24.0 mg/kg/injection, schedule: Q01DX001 (ip), vehicle: saline + alcohol): 152 % of control and 186 % of control | T/C (endpoint: median survival time, dose: 24.0 mg/kg/injection, schedule: Q01DX009 (ip), vehicle: saline + alcohol): 124 % of control | T/C (endpoint: median survival time, dose: 32.0 mg/kg/injection, schedule: Q01DX001 (ip), vehicle: saline + alcohol): 186 % of control | T/C (endpoint: median survival time, dose: 40.0 mg/kg/injection, schedule: Q01DX001 (ip), vehicle: Klucel (hydroxypropylcellulose) (HPC)): 343 % of control | T/C (endpoint: median survival time, dose: 40.0 mg/kg/injection, schedule: Q04DX003 (ip), vehicle: saline + alcohol): 164 % of control | T/C (endpoint: median survival time, dose: 66.7 mg/kg/injection, schedule: Q01DX001 (ip), vehicle: saline + alcohol): 179 % of control and 184 % of control | T/C (endpoint: median survival time, dose: 80.0 mg/kg/injection, schedule: Q01DX001 (ip), vehicle: Klucel (hydroxypropylcellulose) (HPC)): 117 % of control | T/C (endpoint: median survival time, dose: 80.0 mg/kg/injection, schedule: Q01DX001 (ip), vehicle: saline): 123 % of control | T/C (endpoint: median survival time, dose: 160.0 mg/kg/injection, schedule: Q01DX001 (ip), vehicle: Klucel (hydroxypropylcellulose) (HPC)): 168 % of control

c1ccc([CH2][Pb]([c]2ccccc2)([c]2ccccc2)[c]2ccccc2)cc1
T/C (endpoint: mean survival time, dose: 100.0 mg/kg/injection, schedule: Q04DX003 (ip), vehicle: saline with Tween-80): 100 % of control | T/C (endpoint: mean survival time, dose: 200.0 mg/kg/injection, schedule: Q04DX003 (ip), vehicle: saline with Tween-80): 97 % of control | T/C (endpoint: mean survival time, dose: 400.0 mg/kg/injection, schedule: Q04DX003 (ip), vehicle: saline with Tween-80): 91 % of control
